Source: patent US20060116335A1, “Ready-for-complexation composition” (Lytone Enterprise, Inc., priority 2004, published 2006)
Values after ≈ are worked out from the molar mass of the structure shown.

What was measured:
[1] = test system: Aspergillus niger (CRCC 30506); assay: Antimycotic activity (MIC) on MRS agar plates inoculated with Aspergillus niger spores; assay type: cell-based; details: 168 h, 7 days at 24° C.
Method: The freshly prepared spore suspension (c.a. 10^6/ml)of Aspergillus niger (CRCC 30506) was inoculated on MRS agar plates containing different concentrations of natamycin. The diameter of the colonies of Aspergillus niger was measured after being incubated for 7days at 24° C. […] The results of Table 2 also indicate that the RFC mixture show higher antimycotic activity than conventional natamycin because of the improved solubility.

[2] = cited from earlier work
[3] = Natamycin solubility of the RFC composition in water by UV spectrophotometer at 332.6 nm; assay type: physicochemical; details: 25° C.
Method: The RFC compositions were prepared by mixing commercial natamycin (87%) withβ-CD(98%) in different molar ratios. A comparison on the solubility of natamycin was made for the RFC compositions. The solubility of natamycin in water is determined by UV Spectrophotometer at 332.6 nm.

| Compound | MIC [1] [µg/mL] | solubility in water [2] | Solubility of natamycin [3] [ppm] |
| --- | --- | --- | --- |
| C[C@@H]1C/C=C/C=C/C=C/C=C/[C@H](O[C@@H]2O[C@H](C)[C@@H](O)[C@H](N)[C@@H]2O)C[C@@H]2O[C@](O)(C[C@@H](O)C[C@H]3O[C@@H]3/C=C/C(=O)O1)C[C@H](O)[C@H]2C(=O)O [Commercial natamycin (50%), natamycin] | 1.25 to 1.5 (≈ 1.88 to 2.25 µM) |  |  |
| C[C@@H]1C/C=C/C=C/C=C/C=C/[C@H](O[C@@H]2O[C@H](C)[C@@H](O)[C@H](N)[C@@H]2O)C[C@@H]2O[C@](O)(C[C@@H](O)C[C@H]3O[C@@H]3/C=C/C(=O)O1)C[C@H](O)[C@H]2C(=O)O [natamycin] |  | 0.005-0.010 weight/weigh | 45 |
